Test system: aldehyde dehydrogenase (Saccharomyces cerevisiae); call rule not given here
Assay: In vitro inhibition against yeast aldehyde dehydrogenase; IA means In active

`CCOC=O` [ETHOXYCARBONYL GROUP] was tested. Which IC50 did it give?
The IC50 was “Not Active”.

Source: ChEMBL document CHEMBL1128376, “Carbethoxylating agents as inhibitors of aldehyde dehydrogenase” (J Med Chem, 1995)
